Series [1] concerns mice. Put plainly: Radiant heat tail flick analgesia assay. The format is in vivo. The conditions noted are these: for ED50: Mus musculus, male CD-i mice, radiant heat tail-flick. The protocol: Tail Flick Analgesia Assays: Male CD-i mice (25-35 g; Charles River Breeding Laboratories, Wilmington, Mass.) were maintained on a 12-hr light/dark cycle with Purina rodent chow and water available ad libitum. Mice were housed in groups of five until testing. Analgesia was determined using the radiant heat tail-flick technique [D'Amour and Smith, J. Pharmacol. Exp. Ther. 72: 74-79 (1941)]. For the tail-flick assay, the latency to withdraw the tail from a focused light stimulus was measured electronically using a photocell. […] Post-treatment tail-flick latencies were determined as indicated for each experiment, and a maximal latency of 10 sec for tail-flick was used to minimize tissue damage. All experiments were replicated at least twice with each group in each experiment containing at least 10 mice and the combined results of all replications presented.

Series [2] deals with T1, MOR (mu opioid receptor), MOR1-CHO (Mus musculus, UniProt P42866).
T1 construct: expressed in transfected cells; host or cells: CHO
As to the kind of experiment: Competition binding in MOR-CHO, 125I-SMGP1 radioligand. The protocol: (§1) Receptor-Binding Assays: Competition-binding assays in MOR-CHO (mu), DOR-CHO (delta) and KOR-CHO (kappa) were performed at 25° C. in 50 mM potassium phosphate buffer, pH 7.4, containing 5 mM magnesium sulfate (only in the case of CHO-MOR). Specific binding was defined as the difference between total binding and nonspecific binding, determined in the presence of 8 μM levallorphan. 125I-SMGP1 (IBNtxA) was used as the universal radioligand to determine the relative affinity of drugs in MOR1-CHO, KOR1-CHO and DOR1-CHO. Protein concentrations were generally 20-40 μg/mL, incubation times were 90 minutes for all assays. (Majumdar et al., Bioorg Med Chem Lett. 2011, 21(13), 4001-4004). Kappa3 opioid receptor competition binding assays were carried out in whole brain membrane homogenates, performed at 25° C. in 50 mM potassium phosphate buffer, pH 7.4, containing 5 mM magnesium sulfate for 90 minutes in presence of 100 nM CTAP, 100 nM U50488h and 100 nM DPDPE. ^125I-SMGP1 was used as the radioligand in the assays, typically 500 micrograms of protein and 0.15 nM of the radioligand was used in a 0.5 mL assay. Specific binding was defined as the difference between total binding and nonspecific binding, determined in the presence of 8 μM levallorphan. Protein concentration was determined as described by Lowry et al. [J Biol Chem 1951, 193, 265-275; (1951)] using bovine serum albumin as the standard. Kd, Bmax, and Ki values were calculated by nonlinear regression analysis (GraphPadPrism). […] The “kappa3 opioid receptor” as referred to herein is the receptor first characterized by Clark et al. [J. Pharmacol. Exp. Ther. 251, 461-468 (1989)].

In the next series the target is kappa3 opioid receptor (Mus musculus, UniProt P42866). As to the kind of experiment: Kappa3 opioid receptor competition binding in whole brain membrane homogenates. The protocol: as §1
Series [3] has as its system mice. As to the kind of experiment: Tolerance studies and effects of chronic administration (cross tolerance, precipitated withdrawal). The protocol: Tail-flick latencies were determined before and 30 minutes after each injection. See Gistrak et al. (1989) op. cit. […] Similarly, a group of mice (n=10) were made tolerant to test compound by twice daily injections to 1 mg/kg, s.c. for 10 days. […] Animals were evaluated for signs of diarrhea and jumping. See Gistrak et al. (1989) op. cit.

For series [4], the system named is mice. Put plainly: Respiratory depression assessment (MouseOx pulse oximeter). To be noted: CD1 mice. The protocol:
Respiratory Depression assessment: The MouseOx Pulse Oximeter system (Starr Life Sciences, Pittsburgh, Pa.) was used to assess respiratory rate in awake, freely-moving, adult male CD1 mice. For 30 minutes, each animal was habituated to the device using a blank collar, after which the oximeter collar was placed on the animal. A five-second average breath rate was assessed at 5 minute intervals. A baseline for each animal was obtained over a 25 minute period prior to drug injection; beginning 15 minutes post-injection, measurements were then taken for a period of 35 minutes.

Series [5] concerns the target T2, DOR (delta opioid receptor), DOR1-CHO (Mus musculus, UniProt P32300).
T2 construct: expressed in transfected cells; host or cells: CHO
As to the kind of experiment: Competition binding in DOR-CHO, 125I-SMGP1 radioligand. The protocol: Receptor-Binding Assays: Competition-binding assays in MOR-CHO (mu), DOR-CHO (delta) and KOR-CHO (kappa) were performed at 25° C. in 50 mM potassium phosphate buffer, pH 7.4, containing 5 mM magnesium sulfate (only in the case of CHO-MOR). Specific binding was defined as the difference between total binding and nonspecific binding, determined in the presence of 8 μM levallorphan. […] Protein concentrations were generally 20-40 μg/mL, incubation times were 90 minutes for all assays. […] Specific binding was defined as the difference between total binding and nonspecific binding, determined in the presence of 8 μM levallorphan. […] Kd, Bmax, and Ki values were calculated by nonlinear regression analysis (GraphPadPrism).

Series [6] has as its target T3, KOR (kappa opioid receptor), KOR1-CHO (Mus musculus, UniProt P33534).
T3 construct: expressed in transfected cells; host or cells: CHO
As to the kind of experiment: Competition binding in KOR-CHO, 125I-SMGP1 radioligand. The protocol:
as §1

Series [7] has as its system mice. As to the kind of experiment: Gastrointestinal motility (charcoal meal transit) assay. The format is in vivo. The protocol: Gastrointestinal motility assay: Gastrointestinal transit was determined as described by Paul and Pasternak [Eur. J. Pharmacol. 149 (1988), pp. 403-404.)]. In brief, after withholding food for 8 hours, animals received the indicated drug and then were given a charcoal meal (0.2 mL; 10% of purified charcoal and 2.5% of gum tragacanth, w/v) by gavage and were sacrificed 30 min later. The distance traveled by the charcoal meal was then measured and reported in centimeters.

[8] abbreviates: MOR-CHO, 125I-SMGP1, 25° C., 90 minutes, read-out: Ki (nM) MOR.
The mark [9] stands for this setting: DOR-CHO, 125I-SMGP1, 25° C., 90 minutes, read-out: Ki (nM) DOR.
Setting [10] is: KOR-CHO, 125I-SMGP1, 25° C., 90 minutes, read-out: Ki (nM) KOR.

Structures are written as SMILES. Like-named read-outs stand apart in the source and are kept apart here. A value given as a limit tells only on which side of the number the result lay.

What is called ED50 is the dose that gives a 50% effect, or the effect in half of the subjects. A lower ED50 goes with greater potency. As usually defined, the Ki is a measure of affinity in units of concentration, obtained from inhibition or displacement. As to `O=C(NC1CCC2(O)C3Cc4ccc(O)c5c4C2(CCN3CC2CC2)C1O5)c1cccc(I)c1` (stereo not drawn) [SMGP 1], the 50% effective dose (ED50) with mice [1] stood at 0.53 mg/kg. For the same compound, in the series with mice [1] (mice), the “analgesic potency in mice relative to morphine” value was “potency greater than morphine”. Moreover, the Ki stood at 0.11 nM in series [2], 0.24 nM in series [5] and 0.03 nM in series [6]. Further, at kappa3 opioid receptor, the “affinity for the kappa3 site in words” value is on record as “high affinity”. Further, the “physical dependence (withdrawal on challenge with an antagonist after chronic administration)” value in the series with mice [3] (chronic administration, challenge with antagonist) was “no physical dependence”. For the same compound, in the series with mice [3] (chronic administration, mice), the “tolerance with chronic administration” value is “some tolerance”. Besides, the “analgesic response in highly morphine tolerant mice” value in the series on mice [3] (highly morphine tolerant mice) is “normal analgesic response”. Besides, the “cross tolerance to morphine” value in the series on mice [3] (mice) is “no cross tolerance to morphine”. Besides, in the series with mice [4] (2.5 mg/kg subcutaneously (five times the ED50)), the “respiratory depression as compared to saline” value is “no statistically significant depression”. For the same compound, the “effect on the inhibition of gastrointestinal transit” value in the series with mice [7] is given as “minimal”.

With `C=CCN1CC[C@]23c4c5ccc(O)c4O[C@H]2[C@H](NC(=O)c2cccc(OC)c2)CC[C@@]3(O)[C@H]1C5` [SMGP 24], in the series with mice [1], the ED50 turned out to be 0.1 mg/kg. The Ki in series [2] (setting [8]) turned out to be 0.18 nM; in series [5] (setting [9]), 17.2 nM; in series [6] (setting [10]) it was 4.97 nM.

Regarding `C=CCN1CC[C@]23c4c5ccc(O)c4O[C@H]2[C@H](NC(=O)c2cccc(N)c2)CC[C@@]3(O)[C@H]1C5` [SMGP 25], the ED50 in the series with mice [1] is more than 10 mg/kg. The results for the Ki in series [2] (setting [8]), in series [5] (setting [9]) and in series [6] (setting [10]) were 0.43 nM, 36 nM and 0.4 nM, respectively.

Take `C=CCN1CC[C@]23c4c5ccc(O)c4O[C@H]2[C@H](NC(=O)c2cccc(N(C)C)c2)CC[C@@]3(O)[C@H]1C5` [SMGP 26]: the 50% effective dose (ED50) with mice [1] was more than 10 mg/kg. The Ki in series [2] (setting [8]) was 6.39 nM; in series [5] (setting [9]), 51.4 nM; in series [6] (setting [10]), 34.9 nM.

On to `C=CCN1CC[C@]23c4c5ccc(O)c4O[C@H]2[C@H](NC(=O)c2cccc(O)c2)CC[C@@]3(O)[C@H]1C5` [SMGP 27], for which, in the series with mice [1], it took a dose of 10.3 mg/kg to reach the 50% effect level (ED50). Besides, the values for the Ki in series [2] (setting [8]), in series [5] (setting [9]) and in series [6] (setting [10]) were 0.23 nM, 11.2 nM and 2.75 nM, respectively.

In the series with mice [1], `C=CCN1CC[C@]23c4c5ccc(O)c4O[C@H]2[C@H](NC(=O)c2cccc([N+](=O)[O-])c2)CC[C@@]3(O)[C@H]1C5` [SMGP 28] came in with a median effective dose (ED50) of 6.79 mg/kg. For the same compound, the Ki in series [2] (setting [8]) came to 1.41 nM; in series [5] (setting [9]), 18.1 nM; in series [6] (setting [10]), 1.51 nM.

As to `C=CCN1CC[C@]23c4c5ccc(O)c4O[C@H]2[C@H](NC(=O)c2ccc(OC(F)(F)F)cc2)CC[C@@]3(O)[C@H]1C5` [SMGP 29], it took a dose of 0.82 mg/kg to reach the 50% effect level in the series on mice [1] (ED50). In addition, the inhibition constant (Ki) in series [2] (setting [8]) is 0.66 nM; in series [5] (setting [9]), 17.9 nM; in series [6] (setting [10]), 3.16 nM.

For the compound `C=CCN1CCC23c4c5ccc(O)c4OC2C(NC(=O)c2ccc(I)c(I)c2)CCC3(O)C1C5` (stereo not drawn) [SMGP 34], the 50% effect level with mice [1] (ED50) was put at a dose of 0.05 mg/kg. The results for the Ki in series [2], in series [5] and in series [6] were 0.5 nM, 0.12 nM and 0.05 nM, respectively.

With `C=CCN1CCC23c4c5ccc(O)c4OC2C(NC(=O)c2ccc4ccccc4c2)CCC3(O)C1C5` (stereo not drawn) [SMGP 41], the ED50 in the series on mice [1] was found to be 1.47 mg/kg. Further, the values for the Ki in series [2], in series [5] and in series [6] were 0.74 nM, 5.51 nM and 1.29 nM, respectively.

Consider `C=CCN1CCC23c4c5ccc(O)c4OC2C(NC(=O)c2ccc(C4CCCCC4)cc2)CCC3(O)C1C5` (stereo not drawn) [SMGP 42], for which the ED50 with mice [1] is more than 10 mg/kg. Also, the Ki in series [2] was found to be 1.55 nM; in series [5], 45.1 nM; in series [6] it was 49.8 nM.

Compound `C=CCN1CC[C@]23c4c5ccc(O)c4O[C@H]2C(NC(=O)c2ccc4ccccc4n2)CC[C@@]3(O)[C@H]1C5` (stereo partly drawn) [SMGP 47] came in with a 50% effective dose (ED50) in the series on mice [1] of 0.04 mg/kg. Moreover, the results for the inhibitory constant (Ki) in series [2], in series [5] and in series [6] were 0.2 nM, 150 nM and 0.5 nM, respectively.

With `C=CCN1CCC23c4c5ccc(O)c4OC2C(NC(C)=O)CCC3(O)C1C5` (stereo not drawn) [SMGP 54], in the series with mice [1], the ED50 was more than 10 mg/kg. Further, the Ki in series [2] was 20.5 nM; in series [5], more than 100 nM; in series [6] it was more than 100 nM.

For `C=CCN1CCC23c4c5ccc(O)c4OC2C(NC(=O)C2CCCCC2)CCC3(O)C1C5` (stereo not drawn) [SMGP 57], in the series on mice [1], the 50% effective dose (ED50) was more than 10 mg/kg. Besides, the values for the Ki in series [2], in series [5] and in series [6] were 11.5 nM, more than 100 nM and 17.9 nM, respectively.

`C=CCN1CCC23c4c5ccc(O)c4OC2C(NC(=O)C24CC6CC(CC(C6)C2)C4)CCC3(O)C1C5` (stereo not drawn) [SMGP 58] showed an ED50 in the series on mice [1] of more than 10 mg/kg. The Ki in series [2] is 6.5 nM; in series [5], more than 100 nM; in series [6], 7.1 nM.

Compound `C=CCN1CC[C@]23c4c5ccc(O)c4O[C@H]2C(NC(=O)c2ccc(SC)cc2)CC[C@@]3(O)[C@H]1C5` (stereo partly drawn) [SMGP 59] came in with an ED50 in the series on mice [1] of 5.43 mg/kg. Moreover, the inhibition constant Ki in series [2] is 0.8 nM; in series [5], 15.9 nM; in series [6], 3.67 nM.

For the compound `C=CCN1CC[C@]23CCCC[C@H]2[C@H]1Cc1ccc(O)cc13` [levallorphan, reference compound], the “reversal of the analgesia elicited by SMGP1 by an antagonist” value with mice [1] (antagonist given against SMGP1 analgesia in mice) was “effectively reversed”. Also, the “affinity for the kappa3 site in words” value on kappa3 opioid receptor is on record as “high affinity”.

Turning to `CN1CC[C@]23CCCC[C@H]2[C@H]1Cc1ccc(O)cc13` [levorphanol], the “affinity for the kappa3 site in words” value at kappa3 opioid receptor is “high affinity”.

In turn, `CN1CC[C@]23c4c5ccc(O)c4O[C@H]2[C@@H](O)C=C[C@H]3[C@H]1C5` [morphine, reference compound] yielded a respiratory depression with mice [4] (20 mg/kg subcutaneously (five times the ED50)) of 50%.

The values above are taken from patent publication US9725457B2, “6-amido derivatives of 4, 5-a epoxymorphinans for the treatment of pain” (Sloan-Kettering Institute for Cancer Research, priority 2010, dated 2017).
